These results are taken from paper PMC8141582, “Synergistic Effect of Statins and Abiraterone Acetate on the Growth Inhibition of Neuroblastoma via Targeting Androgen Receptor” (Frontiers in Oncology, 2021).

One experiment relates to NB cells. Details: method as in PMID 28326012. Conditions: cited from earlier work; for proliferation, migration, invasion, and sphere formation of NB cells: AR antagonists, hormone-free medium.
The next experiment has as its system SK-N-BE (2) cells. Briefly: MTT cell viability assay, SK-N-BE (2). In kind it is cell-based. To be noted: Homo sapiens, SKNBE2, NB cell line, 72 h. As to the method: (§1) N2a, SH-SY5Y, SK-N-BE (2), 10A, HUVEC, HL7702 cells were plated in 96-well plates at 8,000 cells/well, respectively, in complete media in triplicate wells for each dose and cultured for 18 h. The neuroblastoma cell lines, N2a, SH-SY5Y, and SK-N-BE (2), and non-cancer cell lines, 10A, HUVEC, and HL7702, were treated with simvastatin and fluvastatin in a range of doses from 0 to 20 μM and with AA from 0 to 30 μM; N2a, SH-SY5Y SK-N-BE (2), were treated with rosuvastatin in a range of doses from 0 to 100 μM for 72 h. Statins dissolved in DMSO and AA dissolved in ethanol. After 72 h treatment, the medium was added 0.5 mg/ml MTT reagent and incubated at 37°C for 4 h. Subsequently, the supernatant was aspirated, and cells were lysed in 150 µl DMSO, then shaken 10 min at 37°C. The optical density (OD) was measured at 570 and 630 nm using a plate reader.

The next experiment deals with PC-3 cells. Details: key to Results (abiraterone acetate alone): Positive: Abiraterone acetate alone inhibited the progression of cancer; Negative: Abiraterone acetate could not inhibit the progression of cancer. Conditions: Prostate Cancer, 98.0 mg/kg/day, oral; ref Supplement [28]; cited from earlier work.
A further experiment relates to Caki2 cells. Details: method as in Supplement [32]; key: Positive: Abiraterone acetate alone inhibited the progression of cancer; Negative: Abiraterone acetate could not inhibit the progression of cancer. To be noted: Renal Cell Carcinoma, 195.8 mg/kg/day, i.p.; ref Supplement [32]; cited from earlier work.
The subject of another experiment is HL7702 cells. Briefly: MTT cell viability assay, HL7702. In kind it is cell-based. Conditions: Homo sapiens, L02, normal cell line, 72 h. The method, then: (§2) Statins dissolved in DMSO and AA dissolved in ethanol. After 72 h treatment, the medium was added 0.5 mg/ml MTT reagent and incubated at 37°C for 4 h. Subsequently, the supernatant was aspirated, and cells were lysed in 150 µl DMSO, then shaken 10 min at 37°C. The optical density (OD) was measured at 570 and 630 nm using a plate reader.

The test system of another experiment is 22RV1 cells. Also on record: key to Results (abiraterone acetate alone): Positive: Abiraterone acetate alone inhibited the progression of cancer; Negative: Abiraterone acetate could not inhibit the progression of cancer. Conditions: Prostate Cancer, 200.0 mg/kg, oral; ref Supplement [29]; cited from earlier work.
The subject of a further experiment is N2a cells. Briefly: MTT cell viability assay, N2a. The class given is cell-based, mouse. Conditions: for IC50: Mus musculus, N2a, NB cell line, MTT, 72 h. As to the method: as §1
The test system of a further experiment is HUVEC cells. Briefly: MTT cell viability assay, HUVEC. Conditions: Homo sapiens, normal cell line, 72 h. The class given is cell-based. The method, then: as §2
The subject of the next experiment is SH-SY5Y xenografts. In words: SH-SY5Y tumor xenograft study. In kind it is in vivo, BALB/c nude mice. Conditions: AA 150 mg/kg, oral daily. An excerpt: Four weeks old BALB/c nude mice of both sexes were purchased from Vital River Laboratory Animal Technology Co., Ltd. (Beijing, China) and maintained under specific pathogen-free conditions. Male mice were castrated 5 days before cell inoculation. […] Then, all the mice were divided randomly into four groups: control group (Placebo, n = 7), simvastatin group (Sim, n = 6), abiraterone acetate group (AA, n = 6), and combination group (Com, n = 6) including three male mice in each group. […] AA 150 mg/kg/day; combined simvastatin 10 mg/kg/day with AA 75 mg/kg/day. Tumor was harvested after 10 days of dosing, then fixed half of a tumor in 4% buffered formaldehyde for IHC and the other half was stored −80°C for RT-PCR and Western Blots analysis.

A further experiment relates to SH-SY5Y cells. Briefly: MTT cell viability assay, SH-SY5Y. Conditions: Homo sapiens, NB cell line, 72 h. In kind it is cell-based. The method, then:
as §1

Another experiment deals with LNCaP cells. Also on record: method as in Supplement [30]; key: Positive: Abiraterone acetate alone inhibited the progression of cancer; Negative: Abiraterone acetate could not inhibit the progression of cancer. To be noted: Prostate Cancer, 3.5 mg/kg/day, i.p.; ref Supplement [30]; cited from earlier work.
The subject of a further experiment is MDA-MB-453 cells. Details: method as in Supplement [31]; key: Positive: Abiraterone acetate alone inhibited the progression of cancer; Negative: Abiraterone acetate could not inhibit the progression of cancer. Conditions: Breast Cancer, 285.7 mg/kg/day, oral; ref Supplement [31]; cited from earlier work.
The subject of a further experiment is 10A cells. In words: MTT cell viability assay, 10A. In kind it is cell-based. Conditions: Homo sapiens, normal cell line, 72 h. The method, then:
as §2

SMILES strings stand for the structures.

For the molecule `CNC(=O)c1ccc(N2C(=S)N(c3cnc(C#N)c(C(F)(F)F)c3)C(=O)C23CCC3)cc1F` [ARN509], the “proliferation, migration, invasion, and sphere formation of NB cells” value in the experiment on NB cells is given as “significantly decreased”.
As to `CC(=O)O[C@H]1CC[C@@]2(C)C(=CC[C@@H]3[C@@H]2CC[C@]2(C)C(c4cccnc4)=CC[C@@H]32)C1` [Abiraterone acetate], the IC50 in the experiment with SK-N-BE (2) cells is 9.86 µM; in the experiment with HL7702 cells, 5.31 µM; in the experiment on N2a cells it was 4.32 µM; in the experiment with HUVEC cells, 22.6 µM; in the experiment on SH-SY5Y cells, 2.72 µM; with 10A cells it was 5.2 µM. Besides, the “Results (abiraterone acetate alone)” value in the experiment on PC-3 cells is on record as “Positive”; in the experiment with Caki2 cells, “Positive”; in the experiment on 22RV1 cells it was “Negative”; in the experiment on LNCaP cells, “Positive”; in the experiment with MDA-MB-453 cells, “Negative”. In addition, the inhibition rate in the experiment on N2a cells (N2a cells, 2.5 μM AA) was roughly 20%. The tumor growth result in the experiment with SH-SY5Y xenografts is on record as “tumor growth delay”.
As for `CC(C)n1c(/C=C/C(O)CC(O)CC(=O)O)c(-c2ccc(F)cc2)c2ccccc21` (stereo not shown) [Fluvastatin], the IC50 with SK-N-BE (2) cells was 8.41 µM; in the experiment on HL7702 cells it was 29.7 µM; with N2a cells it was 5.09 µM; in the experiment on HUVEC cells it was 8.96 µM; in the experiment on SH-SY5Y cells it was 6 µM; in the experiment with 10A cells, 13.3 µM.
With `CNC(=O)c1ccc(N2C(=S)N(c3ccc(C#N)c(C(F)(F)F)c3)C(=O)C2(C)C)cc1F` [MDV3100], the “proliferation, migration, invasion, and sphere formation of NB cells” value with NB cells is given as “significantly decreased”.
Turning to `C[C@]1(O)CC[C@H]2[C@@H]3CCC4=CC(=O)CCC4=C3C=C[C@@]21C` [R1881], in the experiment with NB cells (AR agonist, in vitro and in vivo), the “growth of NB” value is “promoted the growth of NB in vitro and in vivo”.
With `CC(C)c1nc(N(C)S(C)(=O)=O)nc(-c2ccc(F)cc2)c1/C=C/[C@@H](O)C[C@@H](O)CC(=O)O` [Rosuvastatin], the IC50 in the experiment with SK-N-BE (2) cells was 67.6 µM; with N2a cells it was 68.4 µM; in the experiment on SH-SY5Y cells, greater than 100 µM.
